{"source": "paper PMC12138661", "about": "“Anti-Trypanosoma cruzi Effect of Fatty Acids from Porcelia macrocarpa Is Related to Interactions of Cell Membranes at Different Microdomains as Assessed Using Langmuir Monolayers” (ACS Omega, 2025)", "key": {"[1]": {"system": "trypomastigote forms of T. cruzi", "parameters": "method as in number not given", "conditions": "previous studies; ref number not given; cited from earlier work"}, "T. cruzi epimastigotes": {"system": "T. cruzi epimastigotes", "parameters": "method as in number not given", "conditions": "literature data; ref number not given; cited from earlier work"}, "[2]": {"system": "amastigote forms of L. (L.) infantum", "parameters": "method as in number not given", "conditions": "previous studies; ref number not given; cited from earlier work"}, "[3]": {"system": "trypomastigote forms of T. cruzi (strain Y)", "assay": "In vitro EC50 against trypomastigote forms of T. cruzi (resazurin viability)", "assay_type": "cell-based", "conditions": "Trypanosoma cruzi; trypomastigotes, 24 h; read-out: T. cruzi EC50 TRYPO", "procedure": "Trypomastigote forms (strain Y) of T. cruzi were obtained from Swiss mice (Mus musculus) previously infected intraperitoneally. The trypomastigote forms were used to infect LLC-MK2 cell cultures consisting of Macaca mulatta kidney epithelial cells (ATCC CCL 7) grown in RPMI-1640 medium containing 2% fetal bovine serum (FBS). The infected cell cultures were maintained in an incubator at 37 °C with 5% CO2, as previously described. , To evaluate the 50% effective concentration (EC50) against the trypomastigote forms of T. cruzi, mixture 1–10 was serially solubilized in the RPMI-1640 culture medium in 96-well plates. Subsequently, the trypomastigote forms of T. cruzi were added, at a concentration of 1 × 10^6 trypomastigotes per well. After an incubation period of 24 h at 37 °C with 5% CO2, to determine the viability of trypomastigotes, 20 μL of 10% Alamar Blue (resazurin) was added, followed by a new incubation of the plates for 20 h under the same conditions. At the end of the tests, the plates were read by absorption using a microplate spectrophotometer (Filter Max F5 Multi-Mode Microplate Reader) at 570 nm, as previously described. Benznidazole was used as a positive control, while cells not subjected to treatment were used as a negative control."}, "[4]": {"system": "amastigote forms of T. cruzi", "assay": "In vitro EC50 against intracellular amastigote forms of T. cruzi in peritoneal macrophages (Giemsa, infection index)", "assay_type": "cell-based", "conditions": "Trypanosoma cruzi, Peritoneal macrophage; intracellular amastigotes, 48 h; read-out: T. cruzi EC50 AMA", "procedure": "After collecting and counting the cells, they were seeded in Nunc brand 16-well plates and incubated for 18 h at 37 °C in an incubator containing 5% CO2. Nonadherent cells were then removed by washing with RPMI-1640 medium. Subsequently, the cells were infected with trypomastigotes at a ratio of 10:1 per well during an incubation period of 4 h. The mixture of compounds, previously diluted in series, was added and incubated for 48 h to determine the EC50 against amastigotes. After the incubation phase, the glass slides were fixed using MeOH for 5 min and then stained with Giemsa for 7 min. This procedure allowed for observation under a light microscope. The infection index was obtained in 200 macrophages/slide according to the formula: infected macrophages × number of amastigotes/total number of macrophages. Benznidazole was used as a standard drug. ,"}, "[5]": {"assay": "Cytotoxicity against mammalian cells (MTT)", "assay_type": "cell-based", "conditions": "mouse, NCTC clone 929 fibroblasts, NCTC clone 929 murine fibroblasts", "procedure": "The cytotoxicity of the mixture of 1–10 was examined in cells of the NCTC lineage (clone 929) at a density of 6 × 10^4 cells per well. The cells were cultivated in 96-well plates containing different concentrations of the mixture, serially diluted using RPMI 1640 medium supplemented with 10% fetal bovine serum (FBS). Incubation took place over 48 h, in an incubator maintained at 37 °C with 5% CO2. The cell viability of NCTC cells (clone 929) was subsequently evaluated using the MTT colorimetric assay."}, "mammalian cells": {"system": "mammalian cells", "parameters": "method as in number not given", "conditions": "literature data; ref number not given; cited from earlier work"}, "T. cruzi": {"system": "T. cruzi", "parameters": "method as in number not given", "conditions": "literature data; ref number not given; cited from earlier work"}}}
{"compound": "CCCCCCCCC#CCCCCCCCC(=O)O", "note": "[9-octadecinoic acid]", "values": [{"measurement": "activity against trypomastigote forms of T. cruzi", "setting": "[1]", "value": "effective results"}, {"measurement": "inhibition of growth of T. cruzi epimastigotes", "setting": "T. cruzi epimastigotes", "value": "inhibitory capacity"}]}
{"compound": "C=CCCCCCCC#CCCCCCCCCCCCC(=O)O", "note": "[Compound 2, docos-21-en-13-inoic acid]", "values": [{"measurement": "in vitro activity against amastigote forms of L. (L.) infantum", "setting": "[2]", "value": "in vitro activity"}]}
{"compound": "O=C(Cn1ccnc1[N+](=O)[O-])NCc1ccccc1", "note": "[benznidazole]", "values": [{"measurement": "EC50", "setting": "[3]", "value": "3.9 ± 1.2", "unit": "µg/mL"}, {"measurement": "EC50", "setting": "[4]", "value": "0.9 ± 0.2", "unit": "µg/mL"}, {"measurement": "CC50 at 48 h", "setting": "[5]", "value": "> 200", "unit": "µg/mL"}]}
{"compound": "CCCC#CC#CCCCCCCCCCCC(=O)O", "note": "[macrocarpathic acid, 12,14-octadecadiinoic acid]", "values": [{"measurement": "cytotoxic effect on mammalian cells", "setting": "mammalian cells", "value": "cytotoxic effect"}]}
{"compound": "CCCCCCCCCCCCCCCCCC(=O)O", "note": "[stearic acid]", "values": [{"measurement": "activity against T. cruzi", "setting": "T. cruzi", "value": "inactivity"}]}
